Experimental data published in ChEMBL document CHEMBL3046107, “A new isoflavone from Blepharis ciliaris of an Egyptian origin” (Med Chem Res, 2013).
Calls of active or inactive are those of the source. No cut-off for these calls is given here.

Tested on: Radical scavenging activity
Assay: Antioxidant activity assessed as DPPH radical scavenging activity at 20 uM after 2 min by spectrophotometric analysis
Format: functional

SMILES | Activity
O=C(/C=C/c1ccc(O)c(O)c1)OC[C@H]1O[C@@H](Oc2cc(O)c3c(=O)c(-c4ccc(O)cc4)coc3c2)[C@H](O)[C@@H](O)[C@@H]1O | inactive
O=C(/C=C/c1ccc(O)c(O)c1)OC[C@H]1O[C@@H](Oc2cc(O)c3c(c2)O[C@H](c2ccc(O)cc2)CC3=O)[C@H](O)[C@@H](O)[C@@H]1O | inactive
